PMC10386076, “Discovery of RC-752, a Novel Sigma-1 Receptor Antagonist with Antinociceptive Activity: A Promising Tool for Fighting Neuropathic Pain” (Pharmaceuticals, 2023)
Entries after “also recorded” stand apart in the source; their conditions may differ.

Experiments:
PC12 cells = assay: NGF-induced neurite outgrowth assay in PC12 cells; assay type: cell-based; settings: for effect on percentage of differentiated PC12 cells, co-administration with PRE-084: 0.25 μM and 2.5 μM with 10 μM PRE-084, vs PRE-084; for effect on NGF-induced neurite outgrowth, compound alone: 0.25 μM and 2.5 μM, vs NGF
Procedure: At 80% confluence, the cells were either split to allow a further culture expansion or plated onto 48-well flat-bottom plates previously coated with poly-L-ornithine (Sigma Aldrich, Milan, Italy) at the final concentration of 10 μg/cm^2. The cells were plated at low density (2500 cells/well) to allow proper neurite elongation. The PC12 cells were mechanically detached from the flask to avoid cell-surface receptor cleavage and to preserve the correct binding of NGF to the TrkA receptors. To minimize detachment stress, the cells were left in PM for 24 h to recover. […] PRE-084 (10 µM), an S1R agonist, was used to verify that the effects of the selected compounds were due to the S1R modulation. In CTR conditions, the cells were incubated with the drug vehicle. For all the ligands, two replicates per concentration were performed in at least 3 experiments with different PC12 batches.
After 72 h incubation in DM, the cells were fixed with a 4% paraformaldehyde solution (pH 7.4). To allow the neurite visualization with a bright-field microscope, the cells were stained with the Harris Hematoxylin solution (Sigma Aldrich). After staining, images of six fields per well were acquired with a digital camera linked to a bright-field inverted microscope (Optika) (20× magnification). […] Only the cells bearing a neurite as long as their soma’s diameter were identified as differentiated cells. The number of differentiated cells was expressed as the percentage of differentiated cells over the total number of cells.

[1] = tested on: CHME-5 (human microglial cells); assay: MTS cytotoxicity assay, CHME-5; assay type: cell-based; settings: for cell survival: CHME-5, 100 μM, all time points
Procedure: (§1) The early toxicity assays included in vitro cytotoxicity against two human cell lines, namely MRC-5 (human normal lung fibroblasts) and CHME-5 (human microglial cells) and an in vivo zebrafish model. The cell lines MRC-5 and CHME-5 were exposed for 24, 48, and 72 h to increasing concentrations of the tested compounds (from 0.1 to 100 µM).
(§2) A CellTiter 96® AQueous One Solution Cell Proliferation Assay (Promega, Milan, Italy) was used on cells seeded onto a 96-well plate at a density of 9 × 10^3 cells per well. The effect of the test compound was evaluated at four different concentrations (0.1, 1, 10, and 100 μM) after 24 h of continued exposure. Two independent experiments were performed for each concentration. The optical density (OD) of the treated and untreated cells was determined at a wavelength of 490 nm using a plate reader. The data were elaborated with the GraphPad Prism 5 program.

S1R = biological target: T1, S1R (Cavia porcellus, UniProt Q60492); assay: S1R radioligand displacement binding assay ([3H]-(+)-pentazocine); parameters: species or system guinea pig; settings: for Selectivity (Ki S2R/Ki S1R): ratio Ki S2R/Ki S1R
T1 construct: tissue Harlan-Winkelmann, Borchen, Germany; host or cells: guinea pig brain membrane homogenate
T1 sequence (Q60492 whole entry): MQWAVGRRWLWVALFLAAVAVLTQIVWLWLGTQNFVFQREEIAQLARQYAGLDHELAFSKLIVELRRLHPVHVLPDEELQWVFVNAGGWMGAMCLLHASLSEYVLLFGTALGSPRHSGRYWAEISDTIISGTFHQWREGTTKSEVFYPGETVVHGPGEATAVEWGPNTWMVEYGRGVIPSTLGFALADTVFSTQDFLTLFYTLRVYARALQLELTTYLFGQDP
Procedure: (R/S)-1a–3e were first evaluated for their binding affinity toward the S1R and S2R in a radioligand displacement assay. […] Nonspecific binding was determined using non-radiolabeled (+)-pentazocine and haloperidol in excess. All the binding experiments were carried out in duplicate. […] Haloperidol was used as a control compound in both assays.
Five guinea pig brains were homogenized with the potter (500–800 rpm, 10 up and down strokes) in 6 volumes of cold 0.32 M sucrose. The suspension was centrifuged at 1200× g for 10 min at 4 °C. […] This procedure was repeated twice. The final pellet was resuspended in 56 volumes of buffer and frozen ([…]) in 1.5 mL portions containing about 1.5 mg protein/mL.
The test compound solutions were prepared by dissolving approximately 10 µmol (usually 2–4 mg) of test compound in dimethyl sulfoxide (DMSO, unless otherwise specified), so that a 10 mM stock solution was obtained. To obtain the required test solutions for the assay, the DMSO stock solution was diluted with the respective assay buffer. The filtermats were presoaked in 0.5% aqueous polyethylenamine solution for 2 h at r.t. before use. All the binding experiments were carried out in duplicate in 96-well multiplates. The concentrations given are the final concentrations in the assay. […] The receptor preparation was always added last. During the incubation, the multiplates were shaken at a speed of 500–600 rpm at the specified temperature. […] During the filtration each well was washed five times with 300 µL of water. Subsequently, the filtermats were dried at 95 °C. The solid scintillator was melted on the dried filtermats at 95 °C for 5 min. After the solidifying of the scintillator at r.t., the trapped radioactivity in the filtermats was measured with the scintillation analyzer. Each position on the filtermat corresponding to one well of the multiplate was measured for 5 min with the [^3H]-counting protocol. The overall counting efficiency was 20%. The IC50 values were calculated with GraphPad Prism 3.0 (GraphPad Software, San Diego, CA, USA) by nonlinear regression analysis. The IC50 values were subsequently transformed into Ki values using the equation of Cheng and Prusoff. All the experiments were carried out in duplicates. Compounds with high S1R affinity were tested in three independent experiments, and their Ki values are given as mean value ± SEM from the three measurements. […] (22.0 Ci/mmol; Perkin-Elmer). […] The nonspecific binding was determined with 10 µM unlabeled (+)-pentazocine.

[2] = tested on: MRC-5 (human normal lung fibroblasts); assay: MTS cytotoxicity assay, MRC-5; assay type: cell-based
Procedure: as §1, §2

[3] = CHME-5, concentrations ≤10 μM, 24, 48 and 72 h
[4] = MRC-5, concentrations ≤10 μM, 24, 48 and 72 h

Structure (SMILES) | effect on percentage of differentiated PC12 cells, co-administration with PRE-084 (PC12 cells) | effect on NGF-induced neurite outgrowth, compound alone (PC12 cells) | cytotoxicity ([1]; CHME-5, 100 µM, 24 h of exposure) | cell survival [1] | cytotoxicity [1, 3] | Ki (S1R) [nM] | Selectivity (Ki S2R/Ki S1R) (S1R) | cytotoxicity ([2]; MRC-5, 100 µM, 24 h of exposure) | cytotoxicity [2, 4] | effect on percentage of differentiated PC12 cells, co-administration with PRE-084 (PC12 cells; listed as (R/S)-1d) | cytotoxicity ([1]; CHME-5, 100 µM, 24 and 48 h of exposure) | survival rate ([1]; CHME-5, 100 µM, 72 h) | cytotoxicity ([2]; MRC-5, 100 µM, 24 and 48 h of exposure) | survival rate ([2]; MRC-5, 100 µM, 72 h)
CN(CCC(CO)c1ccc(-c2ccccc2)cc1)Cc1ccccc1 (stereo not shown) [Compound 1c, 3-([1,1’-biphenyl]-4-yl)-N-benzyl-4-hydroxy-N-methylbutanamine] | significantly reduced | did not significantly enhance | evident cytotoxic effects | reduced the survival | no cytotoxicity | 0.95 ± 0.08 | 127 | evident cytotoxic effects | no cytotoxicity |  |  |  |  | 
OCC(CCN1CCCCC1)c1ccc(-c2ccccc2)cc1 (stereo not shown) [Compound 1d, 2-([1,1’-biphenyl]-4-yl)-4-(piperidin-1-yl)butan-1-ol] |  | did not significantly enhance |  | reduced the survival | no cytotoxicity |  | 58 |  | no cytotoxicity | significantly reduced; also recorded: most effective | no significative cytotoxicity | higher than 50% | no significative cytotoxicity | higher than 50%
